Data as given in US7087223B2, “Preventives and/or remedies for hyperphosphatemia” (Hisamitsu Pharmaceutical Co., Inc., priority 2000, dated 2006).

What was measured:
[1] = test system: male SD rats; experiment: Effects on amount of urinary phosphorus in normal rats; assay type: in vivo; conditions: 0.5 g in feed (20 g/rat/day) containing 0.58% phosphorus, 5 days, vs control, FIG. 2
Procedure: Effects on Amount of Blood and Urinary Phosphorus in Normal Rats
Using male SD rats (aged 8 weeks), the experiments on suppressive effects for the increase of urinary phosphorus amount in the weakly basic anion exchange resin (Ionac A-365; Sybron Chemicals Co.) or calcium carbonate were carried out as follows.
Namely, after the rats were given with feed (20 g/rat/day) containing 0.3% phosphorus for 7 days, feed (20 g/rat/day) containing 0.58% phosphorus was mixed with 0.5 g of Ionac A-365 or calcium carbonate and the mix feed was further administered to the rats for 5 days. Further, urine was collected for 24 hours before the drug administration and 5 days after the drug administration, and the amount of urinary phosphorus was calculated based on the urinary phosphorus concentration and the amount of urine. The urinary phosphorus concentration was measured by an inorganic phosphorus measurement reagent (P Test Wako). The increased amount of urinary phosphorus excretion was calculated based on the obtained difference of urinary phosphorus amount between before drug administration and 5 days after the drug administration, and compared with that of the non-administration group (control). As for rats in each group, 6 rats in each were subjected to the experiments.

[2] = test system: rats with ⅚ nephrectomy; experiment: Effects on blood phosphorus concentration and renal function in rats with 5/6 nephrectomy; assay type: in vivo, rat; conditions: 0.3 g in 15 g of feed, 12 weeks after nephrectomy, vs control
Procedure: Effects on Blood Phosphorus Concentration and Renal Function in Rats With ⅚ Nephrectomy
Using male SD rats (aged 9 weeks), the experiments on the effects for the lowering action of urinary phosphorus amount and the renal function in the weakly basic anion exchange resin (Ionac A-365; Sybron Chemicals. Co.) or calcium carbonate were carried out as follows.
Namely, ⅔ of the left kidney was removed, after 1 week the right kidney being totally removed to make rats with ⅚ nephrectomy. After 1 week, a mixed feed administration of calcium carbonate or Ionac A-365 started. As a powder feed for rat MF manufactured by Oriental Yeast was used, and the administration dose was made 0.3 g content in 15 g of the feed. 12 weeks after the preparation of rats with ⅚ nephrectomy, blood was collected from the caudal vein, and the blood phosphorus concentration was measured by an inorganic phosphorus measurement reagent (P Test Wako). Also, urine was collected for 24 hours before the nephrectomy and 12 weeks after the nephrectomy, and the urinary protein concentration being measured by a protein measurement reagent (Protein Assay Kit, Bio-lad). As for rats in each group, 9 rats in each were subjected to the experiments.

## O=C([O-])[O-].[Ca+2] [calcium carbonate]
[1]
  increase of urinary phosphorus excretion: significantly suppressed compared with that of control
[2]; FIG. 3
  blood phosphorus concentration: no significant difference in blood phosphorus concentration compared with control
[2]; FIG. 4
  increase of urinary protein excretion amount: significantly suppressed compared with control
